Patent US10155743B2, “Glutarimide derivatives, use thereof, pharmaceutical composition based thereon and methods for producing glutarimide derivatives” (OBSCHESTVO S OGRANICHENNOI OTVETSTVENNOSTIYU …, priority 2013, dated 2018)

Tests used:
[1] = system: hRV strain (GKV reg. No. 2730); assay: Antiviral activity against rhinovirus in mice (body weight, lung weight, infectious titer in lungs); format: in vivo; conditions: Ribavirin 40 mg/kg
[2] = system: mucous membrane of nasal passages, formalin-induced acute rhinosinusitis; assay: Acute rhinosinusitis rat model (induced by intranasal 7.5% formalin solution); format: in vivo, Wistar rats; conditions: rats; for Macroscopic changes in the mucous membrane of nasal passages: Muculent or mucopurulent catarrh (number of animals) / Macroscopic changes in the mucous membrane of nasal passages: Without changes (number of animals): count out of n of the group; for The number of caliciform cells within 1 mm of the mucous membrane of the nasal septum: M ± m
Experimental: Morphological studies of histologic preparations were conducted with a Leica DMLS light-optical microscope (Leica Microsystems, Germany). Micro-morphometric assessment was performed by using an ocular micrometer on a Leica DMLB microscope.
Acute rhinosinusitis was induced by intranasal administration of 20 μl of 7.5% formalin solution (aqueous solution comprising 40% formaldehyde, 8% methyl alcohol, and 52% water) to each nasal passage of rats.
Administration of formalin to rat nasal passages leads to the dissemination of inflammation to adjacent tissues, resulting in a clinical pattern similar to the symptoms of rhinosinusitis in a human.
After an acclimatization period, the following groups were formed: • intact animals administered intragastrically a saline solution in an amount of 0.2 ml, the induction of acute rhinosinusitis was not performed; • a control group consisted of the animals administered intragastrically a saline solution in an amount of 0.2 ml for 7 days after induction of acute rhinosinusitis; • animals administered intramuscularly dexamethasone at a dose of 0.33 mg/kg for 7 days after induction of acute rhinosinusitis; and • animals administered the tested compounds at a dose of 27 mg/kg for 7 days after induction of acute rhinosinusitis.
Clinical observation of each animal was performed every day at least twice daily.
In the experiment with Wistar rats, the induction of acute rhinosinusitis by administration of a 7.5% formalin solution to nasal passages caused in the control group of animals pronounced pathological changes characterizing the development of an acute inflammation process in the nasal mucous. The caused pathology was characterized by congestion, hyperplasia, focal necrosis of the nasal meatus mucous membrane, an increased number of caliciform cells, pronounced infiltration by mononuclear cells and leucocytes, and mucus hyperproduction by submucosal glands.
The mucous and submucous membranes of both nasal passages (respiratory and olfactory regions) of the experimental animals were subjected to a morphological analysis to evaluate a specific activity of the compounds.
For microscopic examination, the sections were stained with hematoxylin and eosin. Detection of acid mukopolysaccharides, the production of which is increased in an inflammation, was performed by histochemical staining of the preparation with Alcian Blue (pH 2.5). The comparison and histological evaluation of changes were performed versus the group of intact rats.
After slaughter, the gross appearance of inflammation in the nasal passages was studied in each animal. Histological, hystochemical and morphological studies of rats were intended to evaluate the following characteristics of nasal passages: congestion of the mucous membrane; hyperplasia and necrosis of nasal epithelium, the number of caliciform cells within 1 mm of the mucous membrane of the nasal septum, and the character of inflammation.
In this study, the efficiency of the mucociliary system was evaluated by the number of caliciform cells and, as a consequence, microscopic changes in the mucous membrane of the nasal passages.

[3] = system: Coxsackie A2-virus (strain HCXV A2); assay: Antiviral activity against Coxsackie virus in vivo (mortality of infected mice); set-up: species or system white mice; conditions: mice; for inhibition in vivo at 30 mg/kg / mortality at 30 mg/kg: Mus musculus, po; for inhibition in vivo at 30 mg/kg: 168 h, read-out: Protective index (%); for inhibition in vivo at 30 mg/kg / Average expectancy life (days), Relative / Average expectancy life (days), Vs. control: 10LD50 HCXV A2, 30 mg/kg orally once daily for 7 days; for mortality at 30 mg/kg: 360 h, 10LD50 HCXV A2 i.m., 30 mg/kg orally once daily for 7 days from 24 h after infection, 15 days monitoring, read-out: Total mortality rate, %; for Average expectancy life (days), Vs. control: difference to virus control
[4] = tested compounds 27 mg/kg for 7 days
[5] = dexamethasone 0.33 mg/kg intramuscularly for 7 days

SMILES: NC(=O)c1ncn([C@@H]2O[C@H](CO)[C@@H](O)[C@H]2O)n1 [Ribavirin, reference compound]
- Suppression of the reproduction of the virus in mouse lungs, Δ lg, Day 2 after infection [1]: 0.88 ± 0.5 Δ lg
- Suppression of the reproduction of the virus in mouse lungs, Δ lg, Day 3 after infection [1]: 2.18 ± 0.26 Δ lg
- Suppression of the reproduction of the virus in mouse lungs, Δ lg, Day 4 after infection [1]: 2 ± 0.16 Δ lg
- Infectious titer of the virus in lungs, lg TCID50, Day 2 after infection ([1]; Hela cell culture): 3.13 ± 0.5 lg TCID50
- Infectious titer of the virus in lungs, lg TCID50, Day 3 after infection ([1]; Hela cell culture): 0.33 ± 0.26 lg TCID50
- Infectious titer of the virus in lungs, lg TCID50, Day 4 after infection ([1]; Hela cell culture): 0.2 ± 0.16 lg TCID50
- Body weight of the mice after infection with hRV, day 0 ([1]; day 0): 7.66 ± 0.89
- Body weight of the mice after infection with hRV, day 1 ([1]; day 1 after infection): 8.81 ± 5.94
- Body weight of the mice after infection with hRV, day 2 ([1]; day 2 after infection): 13.87 ± 5.11
- Lung weight of the mice after infection with hRV, day 2 ([1]; day 2 after infection): 152.6 ± 4.55
- Body weight of the mice after infection with hRV, day 3 ([1]; day 3 after infection): 13.11 ± 1.37
- Lung weight of the mice after infection with hRV, day 3 ([1]; day 3 after infection): 130.1 ± 5.4
- Body weight of the mice after infection with hRV, day 4 ([1]; day 4 after infection): 13.37 ± 1.22
- Lung weight of the mice after infection with hRV, day 4 ([1]; day 4 after infection): 120.5 ± 3.37

SMILES: CC(Cc1cnc[nH]1)N1C(=O)CCCC1=O (centres unmarked) [Compound 32]
- Macroscopic changes in the mucous membrane of nasal passages: Muculent or mucopurulent catarrh (number of animals) [2, 4]: 5
- Macroscopic changes in the mucous membrane of nasal passages: Without changes (number of animals) [2, 4]: 3
- inhibition in vivo at 30 mg/kg [3]: 33%
- mortality at 30 mg/kg [3]: 42.9%
- Average expectancy life (days), Relative [3]: 22.2 days
- Average expectancy life (days), Vs. control [3]: +10.0 days

SMILES: O=C(O)C(Cc1cnc[nH]1)N1C(=O)CCC(O)C1=O (centres unmarked) [Compound 76]
- Macroscopic changes in the mucous membrane of nasal passages: Muculent or mucopurulent catarrh (number of animals) [2, 4]: 6
- Macroscopic changes in the mucous membrane of nasal passages: Without changes (number of animals) [2, 4]: 2

SMILES: C[C@@H]1C[C@H]2[C@@H]3CCC4=CC(=O)C=C[C@]4(C)[C@@]3(F)[C@@H](O)C[C@]2(C)[C@@]1(O)C(=O)CO [Dexamethasone, dexamethasone, reference compound]
- The number of caliciform cells within 1 mm of the mucous membrane of the nasal septum ([2]; dexamethasone 0.33 mg/kg intramuscularly for 7 days after induction): 34.8 ± 2.1
- Macroscopic changes in the mucous membrane of nasal passages: Muculent or mucopurulent catarrh (number of animals) [2, 5]: 3
- Macroscopic changes in the mucous membrane of nasal passages: Without changes (number of animals) [2, 5]: 3

SMILES: CCOC(=O)C(Cc1c[nH]c2ccccc12)N1C(=O)CCCC1=O (centres unmarked) [Compound 27]
- Macroscopic changes in the mucous membrane of nasal passages: Muculent or mucopurulent catarrh (number of animals) [2, 4]: 4
- Macroscopic changes in the mucous membrane of nasal passages: Without changes (number of animals) [2, 4]: 4

SMILES: O=C1CCCC(=O)N1CCc1ncc[nH]1 [Compound 8]
- The number of caliciform cells within 1 mm of the mucous membrane of the nasal septum ([2]; tested compounds 27 mg/kg for 7 days after induction): 34.5 ± 0.8
- Macroscopic changes in the mucous membrane of nasal passages: Muculent or mucopurulent catarrh (number of animals) [2, 4]: 3
- Macroscopic changes in the mucous membrane of nasal passages: Without changes (number of animals) [2, 4]: 3

SMILES: O=C1CCCC(=O)N1CCCc1c[nH]cn1 [Compound 33]
- Macroscopic changes in the mucous membrane of nasal passages: Muculent or mucopurulent catarrh (number of animals) [2, 4]: 5
- Macroscopic changes in the mucous membrane of nasal passages: Without changes (number of animals) [2, 4]: 3

SMILES: NC1CCC(=O)N(C(Cc2c[nH]cn2)C(=O)O)C1=O (centres unmarked) [Compound 75]
- Macroscopic changes in the mucous membrane of nasal passages: Muculent or mucopurulent catarrh (number of animals) [2, 4]: 5
- Macroscopic changes in the mucous membrane of nasal passages: Without changes (number of animals) [2, 4]: 3
- inhibition in vivo at 30 mg/kg [3]: 50%
- mortality at 30 mg/kg [3]: 35.7%
- Average expectancy life (days), Relative [3]: 27.3 days
- Average expectancy life (days), Vs. control [3]: +14.3 days

SMILES: CC1CC(=O)N(C(Cc2cnc[nH]2)C(=O)O)C(=O)C1 (centres unmarked) [Compound 71]
- inhibition in vivo at 30 mg/kg [3]: 44%
- mortality at 30 mg/kg [3]: 35.7%
- Average expectancy life (days), Relative [3]: 28.6 days
- Average expectancy life (days), Vs. control [3]: +16.4 days

SMILES: COC(=O)C(Cc1c[nH]c2ccccc12)N1C(=O)CCCC1=O (centres unmarked) [Compound 21]
- Macroscopic changes in the mucous membrane of nasal passages: Muculent or mucopurulent catarrh (number of animals) [2, 4]: 5
- Macroscopic changes in the mucous membrane of nasal passages: Without changes (number of animals) [2, 4]: 3

SMILES: NC1CC(=O)N(CCc2c[nH]cn2)C(=O)C1 [Compound 65]
- Macroscopic changes in the mucous membrane of nasal passages: Muculent or mucopurulent catarrh (number of animals) [2, 4]: 4
- Macroscopic changes in the mucous membrane of nasal passages: Without changes (number of animals) [2, 4]: 4

SMILES: CC1CC(=O)N(CCc2cnc[nH]2)C(=O)C1 [Compound 2]
- Macroscopic changes in the mucous membrane of nasal passages: Muculent or mucopurulent catarrh (number of animals) [2, 4]: 3
- Macroscopic changes in the mucous membrane of nasal passages: Without changes (number of animals) [2, 4]: 5
- inhibition in vivo at 30 mg/kg [3]: 40%
- mortality at 30 mg/kg [3]: 42.9%
- Average expectancy life (days), Relative [3]: 22.4 days
- Average expectancy life (days), Vs. control [3]: +9.5 days

SMILES: O=C1CCC(O)C(=O)N1CCc1cnc[nH]1 (centres unmarked) [Compound 29]
- inhibition in vivo at 30 mg/kg [3]: 50%
- mortality at 30 mg/kg [3]: 35.7%
- Average expectancy life (days), Relative [3]: 26.7 days
- Average expectancy life (days), Vs. control [3]: +13.7 days

SMILES: O=C(O)C(Cc1ccoc1)N1C(=O)CCCC1=O (centres unmarked) [Compound 44]
- Macroscopic changes in the mucous membrane of nasal passages: Muculent or mucopurulent catarrh (number of animals) [2, 4]: 4
- Macroscopic changes in the mucous membrane of nasal passages: Without changes (number of animals) [2, 4]: 4
- inhibition in vivo at 30 mg/kg [3]: 55%
- mortality at 30 mg/kg [3]: 28.6%
- Average expectancy life (days), Relative [3]: 32.3 days
- Average expectancy life (days), Vs. control [3]: +20.1 days
